Legend:
Type in all cases: cell-based, Zymomonas mobilis
ZW658 strain [1] = assay: Flask growth of ZW658 on glucose and xylose with sorbitol 0.5-10 mM; conditions: after 14.25 hours, total sugar about 160 g/L
Description: (§1) Approximately 1 ml of well mixed sample was obtained from flask or fermentor. First the sample absorbance was measured directly with a spectrophotometer (Amersham Biosciences Ultrospec 3300pro, GE Healthcare, Piscataway, N.J., USA). If the reading was lower than 0.6 unit, no dilution was needed. If the reading was higher than 0.6 unit, the sample was diluted with culture medium until the actual reading was in the range of 0.1 to 0.6 unit. The original OD was calculated from the dilution ratio and the actual reading.
(§2) Glycerol stock of seed frozen at −80° C. was thawed, then inoculated into sterile culture tubes with mixture of 60 g/L glucose, 20 g/L xylose, 10 g/L yeast extract (YE), 10 g/L KH2PO4, 2 g/L (NH4)2SO4, and 1 g/L MgSO4. Initial pH was adjusted to 5.5 with 4 N KOH. This revival culture was grown statically overnight at 37° C. It was transferred into shake flasks with 75 g/L glucose, 25 g/L xylose, 10 g/L yeast extract (YE), 10 g/L KH2PO4, 2 g/L (NH4)2SO4, and 1 g/L MgSO4. Initial pH was adjusted to 5.5 with 4 N KOH. Growth was monitored by measuring OD600. When the OD reached approximately 5, a certain volume of the seed was withdrawn into a sterile syringe for inoculation.
In five sterilized 125 ml Erlenmeyer culture flasks (Cat. No. 30180-036, VWR International, USA), 10 ml of ZW658 strain seed culture at OD600 of approximately 5 (measured at 600 nm) was inoculated into each flask with 100 ml of aqueous solution containing 100 g/L glucose, 80 g/L xylose, 10 g/L yeast extract (YE), 10 g/L KH2PO4, 2 g/L (NH4)2SO4, 1 g/L MgSO4.7H2O, and various concentrations of sorbitol (0, 0.5, 1, 2, and 10 mM). After inoculation, the total sugar concentration was about 160 g/L due to dilution by the seed culture. Initial pH was adjusted to 5.5 with 4 N KOH solution. Mixing speed was set at 150 rpm. Fermentation was conducted at 33° C. and pH was not controlled. Samples were taken periodically. Samples were diluted with medium (as described in General Methods) and the OD600 was measured to monitor cell growth. […] Cultures with higher concentration of sorbitol, in this range, grew faster and better. After 14.25 hours, the OD600 were 4.19, 7.10, 8.08, 8.62, and 10.1, respectively, for sorbitol concentrations of 0, 0.5, 1, 2, and 10 mM.

ZW658 strain [2] = assay: 1-liter fermentor, ZW658 on high concentration glucose and xylose with sorbitol or glutamate
Description: as §1
(§3) The analysis of sugars, acetate, ethanol, and other by-products was done with an Agilent 1100 series HPLC and Agilent ChemStation software for LC 3D. The column was BioRad Aminex HPX-87H(HPLC Organic Analysis Column 125-0140) with BioRad Micro-Guard Cartridge Cation-H (125-0129). The operating conditions were:
as §2
In a sterilized 1-liter fermentor (BIOSTAT® B-DCU system, Sartorius BBI System Inc., Bethlehem, Pa., USA), 50 ml of ZW658 strain seed culture at Optical Density of approximately 5 (measured at 600 nm) was inoculated into 450 ml of aqueous solution containing sugars and medium. The final mixed broth contained 100 g/L glucose, 85.1 g/L xylose, 10 g/L yeast extract (YE), 2 g/L KH2PO4, and 10 mM sorbitol. pH was adjusted to 5.5 with 4 N KOH solution. Mixing speed was set at 150 rpm. Fermentation was conducted at 33° C. and pH 5.5. Samples were taken periodically. Samples were filtered through 0.22 micron filters, and the filtrates were analyzed by HPLC as described in General Methods for compounds including glucose, xylose, ethanol, and acetate. Samples were also diluted with medium (as described in General Methods) and the OD600 was measured to monitor cell growth. […] The by-product xylitol concentration was 0.67 g/L at 29 hr, and increased to 0.95 g/L at 64 hr.
In a sterilized 1-liter fermentor (BIOSTAT® B-DCU system, Sartorius BBI System Inc., Bethlehem, Pa., USA), 50 ml of ZW658 strain seed culture at OD600 of approximately 5 was inoculated into 450 ml of aqueous solution containing sugars and medium. The final mixed broth contained 98.0 g/L glucose, 81.2 g/L xylose, 10 g/L yeast extract (YE), 2 g/L KH2PO4, and 10 mM potassium glutamate. pH was adjusted to 5.5 with 4 N KOH solution. Mixing speed was set at 150 rpm. Fermentation was conducted at 33° C. and pH 5.5. Samples were taken periodically. Samples were filtered through 0.22 micron filters, and the filtrates were analyzed by HPLC as described in General Methods for compounds including glucose, xylose, xylitol, ethanol, and acetic acid. Samples were also diluted with medium (as described in General Methods) and the OD600 was measured to monitor cell growth. […] However, xylose was not well-utilized, cell growth and ethanol production were reduced as compared to that in the presence of sorbitol (Example 4), and xylitol production increased.

ZW658 strain [3] = assay: 1-liter fermentor, ZW658 on glucose and xylose in the presence of sorbitol and acetate; conditions: 5.8 g/L acetate, 10 mM sorbitol
Description: as §1, §3, §2
In a sterilized 1-liter fermentor (BIOSTAT® B-DCU system, Sartorius BBI System Inc., Bethlehem, Pa., USA), 50 ml of ZW658 strain seed culture at OD600 of approximately 5 was inoculated into 450 ml of aqueous solution containing sugars and medium. The final mixed broth contained 99.0 g/L glucose, 82.7 g/L xylose, 5.8 g/L acetate (in the form of potassium acetate), 10 g/L yeast extract (YE), 2 g/L KH2PO4, and 10 mM sorbitol. pH was adjusted to 5.5 with 4 N KOH solution. Mixing speed was set at 150 rpm. Fermentation was conducted at 33° C. and pH 5.5. Samples were taken periodically. Samples were filtered through 0.22 micron filters, and the filtrates were analyzed by HPLC as described in General Methods for compounds including glucose, xylose, ethanol, and acetate. Samples were also diluted with medium (as described in General Methods) and the OD600 was measured to monitor cell growth.

[4] = after 29 hours, 100 g/L glucose, 85.1 g/L xylose, 10 mM sorbitol, 33° C., pH 5.5

Structure (SMILES): OC[C@@H](O)[C@@H](O)[C@H](O)[C@@H](O)CO [sorbitol]
- OD600 (ZW658 strain [1]; 0.5 mM sorbitol): 7.10
- OD600 (ZW658 strain [1]; 1 mM sorbitol): 8.08
- OD600 (ZW658 strain [1]; 2 mM sorbitol): 8.62
- OD600 (ZW658 strain [1]; 10 mM sorbitol): 10.1
- OD600 cells grew to (ZW658 strain [2]; 100 g/L glucose, 85.1 g/L xylose, 10 mM sorbitol, 33° C., pH 5.5): 13
- reduction of xylitol with addition of sorbitol (ZW658 strain [2]; Examples 4 and 5, with vs without sorbitol): about 3 fold
- ethanol concentration (ZW658 strain [2]; [4]): 83.9 g/L
- glucose concentration (ZW658 strain [2]; [4]): 0 g/L
- xylose concentration (ZW658 strain [2]; [4]): 2.08 g/L
- by-product xylitol concentration (ZW658 strain [2]; at 29 hr, 10 mM sorbitol): 0.67 g/L
- by-product xylitol concentration (ZW658 strain [2]; at 64 hr, 10 mM sorbitol): 0.95 g/L
- time to complete utilization of 85 g/L xylose (ZW658 strain [2]; sugars mixture with 100 g/L glucose, no acetate, in the presence of sorbitol): ≤ 30 h
- effect on growth (ZW658 strain [2]; with vs without 10 mM sorbitol): doubled the growth
- effect on lag time (ZW658 strain [2]; with vs without 10 mM sorbitol): significantly reduced the lag time
- by product xylitol concentration (ZW658 strain [3]; after 63.75 hours (stationary phase)): 3.55 g/L
- OD600 cells grew to (ZW658 strain [3]; after 63.75 hours): 6.4
- ethanol concentration (ZW658 strain [3]; after 63.75 hours): 70.0 g/L
- xylose concentration (ZW658 strain [3]; after 63.75 hours): 29.6 g/L
- glucose concentration (ZW658 strain [3]; after 63.75 hours, 99.0 g/L glucose, 82.7 g/L xylose, 33° C., pH 5.5): 0 g/L

Source: patent US7629156B2, “Ethanol production in fermentation of mixed sugars containing xylose” (E.I. du Pont de Nemours and Company, priority 2006, dated 2009)
